From patent US4689326A, “Process for controlling hyperlipidemia” (Research Corporation, priority 1985, dated 1987)

Tests used:
Format in all cases: in vivo, CF1 male mice
[1] = test system: serum cholesterol; test: Testing of Normal Mice: serum cholesterol (modified Liebermann-Burchard), Example 7; conditions: Mus musculus, 20 mg/kg/day ip
Method: (§1) Suspensions of Compounds Nos. 1-9 were prepared wherein the compounds were suspended in an aqueous 1% carboxymethylcelluose solution, homogenized and administered to CF1 male mice, each weighing approximately 25 grams, intraperitoneally on a daily basis for 16 days. The dosage was, with the exception of one compound, 20 milligrams of the active compound per kilogram of mouse weight per day. On days 9 and 16 blood was obtained by tail vein bleeding. The blood serum was separated by centrifugation for three minutes. Serum cholesterol levels were determined by a modification of the Liebermann-Burchard reaction. Serum was also collected on day 16 and the triglycerides content was determined by a commercial kit, BioDynamics/bnc Single Vile Colorimetric Method 348201. Each compound was tested on a group of six mice.
(§2) In addition to the above-described treated mice, untreated control groups of six mice were similarly tested on days 9 and 14 or 16 to determine their serum cholesterol and triglycerides blood levels. Table 5 reports the percent control, based on the serum cholesterol and serum triglyceride levels of the treated mice compared to the untreated controls. Table 5 also includes the standard deviation indicating the level of confidence of these numbers.
(§3) Example 7 was repeated substituting clofibrate, a compound used in the prior art to lower serum cholesterol and serum triglyceride levels. The clofibrate was administered as a suspension in an aqueous 1% solution of carboxymethylcellulose. However, unlike the compounds of the present invention which were administered at a dosage of 20 mg/kg day, ip, this compound was administered at the elevated concentration of 150 mg/kg day, ip.

[2] = test system: serum triglycerides; test: Testing of Normal Mice: serum triglycerides (BioDynamics kit), Example 7; conditions: Mus musculus, 384 h; 20 mg/kg/day ip, day 16, ± SD
Method: as §1, §2, §3

[3] = test system: serum triglycerides; test: Hypolipidemic Activity of Compounds 1 and 10-33, Example 13: serum triglycerides; conditions: Mus musculus, 384 h; 20 mg/kg/day ip, day 16, ± SD; read-out: Serum Triglyceride as a function of control, 16 Day
Method: (§4) Compounds 1 and 10-33, identified below in Table 11, were suspended by homogenation in a 1% aqueous solution of carboxymethylcellulose (CMC) such that a 0.2 ml dosage supplied a concentration of 20 mg/kg of the active compounds. The suspending agent, the 1% aqueous solution of CMC, was utilized as a control, applied in the same quantity, 0.2 ml. CF1 male mice, maintained in groups of six, were fed Wayne Blox [trademark] laboratory animal show ad libitum with water. The mice, which each weighed approximately 25 g, were administered the drugs interperitoneally at approximately the same time. On days 9 and 16 approximately […] of blood was taken from each of the animals by tail bleeding. After centrifugation to obtain serum, 25 microliter samples were assayed for total cholesterol utilizing the method of Ness et al. Serum triglyicerides were assayed, using a commercially available BioDynamics/bmc triglyiceride kit, on blood collected on the 16th day. By comparison to standards the milligram percent of cholesterol and milligram per deciliter concentration of triglicerides were calculated. Treated values were expressed as a percent of the level of the control animals plus or minus the standard deviation. The "T" values were obtained using the Student's "t" test.

[4] = test system: serum cholesterol; test: Hypolipidemic Activity of Compounds 1 and 10-33, Example 13: serum cholesterol; conditions: Mus musculus, 20 mg/kg/day ip
Method: as §4

[5] = 216 h, day 9, ± SD, read-out: Serum Cholesterol Control, % Day 9
[6] = 384 h, day 16, ± SD, read-out: Serum Cholesterol Control, % Day 16
[7] = 216 h, day 9, ± SD, read-out: Serum Cholesterol as a function of control, 9 Day
[8] = 384 h, day 16, ± SD, read-out: Serum Cholesterol as a function of control, 16 Day

`O=C1NCc2ccccc2-c2ccccc21` [Compound 2, 3,4,5,6-dibenzohomopiperidin-2-one] was tested. Which response vs control in vivo at 20 mg/kg [1, 5] did it give?
Its response vs control in vivo at 20 mg/kg is 84 ± 6%.

And the response vs control in vivo at 20 mg/kg [1, 6]?
The response vs control in vivo at 20 mg/kg was 49 ± 4%.

And the response vs control in vivo at 20 mg/kg [2]?
The response vs control in vivo at 20 mg/kg was 73 ± 5%.

For `CN1Cc2ccccc2-c2ccccc2C1` [Compound 4, 2-methyl-3,4,5,6-dibenzohomo-piperidine], which response vs control in vivo at 20 mg/kg [1, 5] is on record?
The response vs control in vivo at 20 mg/kg was 75 ± 6%.

And the response vs control in vivo at 20 mg/kg [1, 6]?
The response vs control in vivo at 20 mg/kg was 61 ± 5%.

What about the response vs control in vivo at 20 mg/kg [2] of the same compound?
The response vs control in vivo at 20 mg/kg was 66 ± 6%.

For `CCN1Cc2ccccc2-c2ccccc2C1` [Compound 5, 2-ethyl-3,4,5,6-dibenzohomopiperidine], which response vs control in vivo at 20 mg/kg [1, 5] is on record?
Its response vs control in vivo at 20 mg/kg is 67 ± 5%.

What about the response vs control in vivo at 20 mg/kg [1, 6] of the same compound?
The response vs control in vivo at 20 mg/kg was 59 ± 4%.

What about the response vs control in vivo at 20 mg/kg [2] of the same compound?
The response vs control in vivo at 20 mg/kg was 60 ± 4%.

Which response vs control in vivo at 20 mg/kg [1, 5] does the source give for `CCCN1Cc2ccccc2-c2ccccc2C1` [Compound 6, 2-propyl-3,4,5,6-dibenzohomopiperidine] here?
The response vs control in vivo at 20 mg/kg was 78 ± 6%.

And the response vs control in vivo at 20 mg/kg [1, 6]?
The response vs control in vivo at 20 mg/kg was 65 ± 5%.

What about the response vs control in vivo at 20 mg/kg [2] of the same compound?
Its response vs control in vivo at 20 mg/kg is 73 ± 6%.

Which results are given for `CCCCN1Cc2ccccc2-c2ccccc2C1` [Compound 7, 2-butyl-3,4,5,6-dibenzohomopiperidine]?
response vs control in vivo at 20 mg/kg [1, 5]: 82 ± 7%; response vs control in vivo at 20 mg/kg [1, 6]: 59 ± 6%; response vs control in vivo at 20 mg/kg [2]: 52 ± 7%

How did the response vs control in vivo at 20 mg/kg [1, 5] turn out when `CCCCCN1Cc2ccccc2-c2ccccc2C1` [Compound 8, 2-pentyl-3,4,5,6-dibenzohomopiperidine] was run?
The response vs control in vivo at 20 mg/kg was 71 ± 6%.

What about the response vs control in vivo at 20 mg/kg [1, 6] of the same compound?
The response vs control in vivo at 20 mg/kg was 67 ± 5%.

What about the response vs control in vivo at 20 mg/kg [2] of the same compound?
The response vs control in vivo at 20 mg/kg was 71 ± 4%.

What does the source list for `CC(=O)CCN1Cc2ccccc2-c2ccccc2C1` [Compound 9, 2-(3-Oxobutyl)-3,4,5,6-Dibenzohomopiperidine]?
response vs control in vivo at 20 mg/kg [1, 5]: 69 ± 8%; response vs control in vivo at 20 mg/kg [1, 6]: 56 ± 7%; response vs control in vivo at 20 mg/kg [2]: 45 ± 5%

With `Cn1c(=O)c2ccccc2c2ccccc2c1=O` [Compound 10, N-methyldiphenimide] as the compound, how does the response vs control in vivo at 20 mg/kg [3] read?
Its response vs control in vivo at 20 mg/kg is 67 ± 6%.

What about the response vs control in vivo at 20 mg/kg [4, 7] of the same compound?
The response vs control in vivo at 20 mg/kg was 64 ± 7%.

What about the response vs control in vivo at 20 mg/kg [4, 8] of the same compound?
Its response vs control in vivo at 20 mg/kg is 63 ± 5%.

Which results are given for `CCn1c(=O)c2ccccc2c2ccccc2c1=O` [Compound 11, N-ethyldiphenimide]?
response vs control in vivo at 20 mg/kg [3]: 66 ± 7%; response vs control in vivo at 20 mg/kg [4, 7]: 64 ± 6%; response vs control in vivo at 20 mg/kg [4, 8]: 62 ± 5%

What does the source list for `CCCn1c(=O)c2ccccc2c2ccccc2c1=O` [Compound 12, N-propyldiphenimide]?
response vs control in vivo at 20 mg/kg [3]: 57 ± 5%; response vs control in vivo at 20 mg/kg [4, 7]: 69 ± 7%; response vs control in vivo at 20 mg/kg [4, 8]: 66 ± 6%

Which response vs control in vivo at 20 mg/kg [3] does the source give for `CCCCn1c(=O)c2ccccc2c2ccccc2c1=O` [Compound 13, N-butyldiphenimide] here?
Its response vs control in vivo at 20 mg/kg is 52 ± 5%.

What about the response vs control in vivo at 20 mg/kg [4, 7] of the same compound?
The response vs control in vivo at 20 mg/kg was 78 ± 7%.

And the response vs control in vivo at 20 mg/kg [4, 8]?
The response vs control in vivo at 20 mg/kg was 77 ± 10%.

With `CCCCCn1c(=O)c2ccccc2c2ccccc2c1=O` [Compound 14, N-pentyldiphenimide] as the compound, how does the response vs control in vivo at 20 mg/kg [3] read?
The response vs control in vivo at 20 mg/kg was 60 ± 5%.

And the response vs control in vivo at 20 mg/kg [4, 7]?
Its response vs control in vivo at 20 mg/kg is 90 ± 8%.

And the response vs control in vivo at 20 mg/kg [4, 8]?
Its response vs control in vivo at 20 mg/kg is 69 ± 4%.

What does the source list for `O=c1c2ccccc2c2ccccc2c(=O)n1Cc1ccccc1` [Compound 15, N-benzyldiphenimide]?
response vs control in vivo at 20 mg/kg [3]: 77 ± 7%; response vs control in vivo at 20 mg/kg [4, 7]: 91 ± 7%; response vs control in vivo at 20 mg/kg [4, 8]: 61 ± 6%

For `CC(=O)CCn1c(=O)c2ccccc2c2ccccc2c1=O` [Compound 16, N-(3-Oxobutyl)-Diphenimide], which response vs control in vivo at 20 mg/kg [3] is on record?
Its response vs control in vivo at 20 mg/kg is 90 ± 4%.

And the response vs control in vivo at 20 mg/kg [4, 7]?
Its response vs control in vivo at 20 mg/kg is 77 ± 5%.

And the response vs control in vivo at 20 mg/kg [4, 8]?
Its response vs control in vivo at 20 mg/kg is 77 ± 7%.

For `O=C(O)CCn1c(=O)c2ccccc2c2ccccc2c1=O` [Compound 17, N-(2-Carboxyethyl)-Diphenimide], which response vs control in vivo at 20 mg/kg [3] is on record?
Its response vs control in vivo at 20 mg/kg is 75 ± 10%.

What about the response vs control in vivo at 20 mg/kg [4, 7] of the same compound?
Its response vs control in vivo at 20 mg/kg is 88 ± 11%.

And the response vs control in vivo at 20 mg/kg [4, 8]?
The response vs control in vivo at 20 mg/kg was 84 ± 6%.

How did the response vs control in vivo at 20 mg/kg [3] turn out when `O=c1c2ccccc2c2ccccc2c(=O)n1-c1ccccc1` [Compound 18, N-phenyldiphenimide] was run?
The response vs control in vivo at 20 mg/kg was 62 ± 6%.

What about the response vs control in vivo at 20 mg/kg [4, 7] of the same compound?
The response vs control in vivo at 20 mg/kg was 97 ± 8%.

What about the response vs control in vivo at 20 mg/kg [4, 8] of the same compound?
Its response vs control in vivo at 20 mg/kg is 67 ± 6%.
